According to patent publication US9427426B2 (priority 2008, dated 2016):
Several values for one entry are separate records, joined by “and”; a condition that tells them apart may be missing. Equal values may be shown once.

How the values were obtained:
[1] = tested on: rats intoxicated with mercury (mercury chloride); experiment: Example 1: erdosteine per os vs NAC per os in rats intoxicated with mercury; type: in vivo, Wistar rats; conditions: erdosteine 875 mg/kg or NAC 500 mg/kg per os once a day for 7 days
Protocol: 3. […] NAC has been mixed with bidistilled water, the resulting solution being administered in volume of 10 ml/kg.
4. […] Erdosteine has been mixed with bidistilled water and sodium hydrogen carbonate equimolar, the resulting solution being administered in volume of 10 ml/kg.
Mortality has been recorded. […] Few animals have been collected urine eliminated spontaneously for Pb—Hg analysis. Animals have been sacrificed under general anesthesia with ether. 6 animals of each group (3 males and 3 females) have been randomly selected for macroscopic and microscopic anatomic-pathological examination.

[2] = tested on: rats; experiment: Example 3: evaluation of erdosteine formulation toxicity i.v. (lots 10-13); type: in vivo, Wistar rats; conditions: 10 animals
Protocol: Have been introduced 4 lot of 10 animals (5 males and 5 females) as follows: • Lot 10—intoxicated with 3500 mg/kg erdosteine i.v., 4.37 g erdosteine+1.48 g sodium hydrogen carbonate dissolved in 25 ml, administrated 2 ml/100 g of animal weight • Lot 11—intoxicated with 4000 mg/kg erdosteine i.v. as in lot 10, administrated 2.28 ml/100 g of animal weight • Lot 12—intoxicated with 4500 mg/kg erdosteine i.v. 4.5 g dissolved in 20 ml, administrated 2 ml/100 g of animal weight. Dissolution volume was choose in order to keep a similar injection volume. • Lot 13—intoxicated with 5500 mg/kg erdosteine i.v. as in lot 12, administrated 2.44 ml/100 g of animal weight Statistical Analysis
It has been evaluated toxicity of formula 350 mg erdosteine+118 mg sodium hydrogen carbonate (formula that has shown the best stability data).

[3] = tested on: rats intoxicated with paracetamol; experiment: Example 4: erdosteine i.v. vs NAC i.v. in rats intoxicated with paracetamol; type: in vivo, Wistar rats
From the text: Experiment has been carried on in parallel with experiment of example 3 and results of animals not intoxicated not treated (lot1) have been used as reference.
3. […] NAC has been dissolved in bidistilled water.
Animals have been monitored as described in example 3.
Mortality has been recorded.

[4] = tested on: rat intoxicated with lead (lead acetate); experiment: Example 3: erdosteine i.v. vs BAL+EDTA (TT) and association in rats intoxicated with lead; conditions: erdosteine 350 mg/kg i.v.
From the text: The animals have been randomly divided in 6 lots.
2. […] Dosage administered is similar to the maximum possible dosage in man.
4. Erdosteine has been administered first, immediately after intoxication, followed rapidly by BAL and then EDTA by more operators in sequence, in order to simulate the situation in man when it is possible to administer i.v. in perfusion and at the same time i.m.
Mortality has been recorded. […] After 7 days urine have been taken through trans-vesica punction.
Analysis of mortality have been made using Chi square test.
Results with p<0.05 have been considered statistically significant.
Biochemical tests have been made with Refloton 2000, hematological tests with Hemastar 4, urine summary with Urilux, Pb in urine with GC-MS Varian

[5] = Hg intoxicated (mercury chloride 42 mg/kg per os), 30 animals/lot
[6] = survivors after 7 days, Hg intoxicated
[7] = 3500 mg/kg erdosteine i.v. (lot 10)
[8] = 4000 mg/kg erdosteine i.v. (lot 11)
[9] = 4500 mg/kg erdosteine i.v. (lot 12), solution not perfectly clear
[10] = 5500 mg/kg erdosteine i.v. (lot 13), solution not perfectly clear
[11] = paracetamol […] per os, erdosteine 350 mg/kg i.v. or NAC 114 mg/kg i.v. once a day for 7 days, 30 animals/lot
[12] = paracetamol intoxicated, erdosteine 350 mg/kg i.v. or NAC 114 mg/kg i.v., 7 days
[13] = survivors at 7 days, paracetamol intoxicated, erdosteine 350 mg/kg i.v. or NAC 114 mg/kg i.v.
[14] = Pb intoxicated (lead acetate 4665 mg/kg per os), BAL 25.2 mg/kg + EDTA 30 mg/kg i.m. (TT) or both, once a day for 7 days, 30 animals/lot
[15] = survivors after 7 days, Pb intoxicated, TT (BAL+EDTA i.m.) or both
[16] = survivors after 7 days, Pb intoxicated, TT (BAL+EDTA i.m.) or both, listed as Erdosteine
[17] = urine at the end of period (7 days), Pb intoxicated, TT or both

For `O=C(O)CSCC(=O)NC1CCSC1=O` (centres unmarked) [erdosteine, Erdosteine], the Mortality in percent [1, 5] was 16.6%, the Mortality total [1, 5] was 5^1 and the “Anatomical pathology: lesions (macroscopic and microscopic examination)” value ([1]; Hg intoxicated) was “less important lesions”. The “Hg in urine mean values” ([1]; Hg intoxicated, GS MS Varian 4100) was 14.7 mg/L, the Creatinine mean values [1, 6] was 0.47 ^1, 2 mK/dl and the Haematocrit mean values [1, 6] was 38.58^3. The Haemoglobin mean values [1, 6] was 13.75^3 g/dl, the Leucocytes mean values [1, 6] was 7.81^3 and the Urea mean values [1, 6] was 49.18 ^1, 2 mg/dl. The “Uric acid mean value” [1, 6] was 2.40 ^1 mg/dl, the erythrocytes mean values [1, 6] was 6.81^3 *10^6/mm^3 and the Mortality % [2, 7] was 10%. The Total mortality [2, 7] was 1/10, the Mortality % [2, 8] was 40% and the Total mortality [2, 8] was 4/10. For the same compound, the Mortality % [2, 9] was 70%, the Total mortality [2, 9] was 7/10 and the Mortality % [2, 10] was 100%. For the same compound, the Total mortality [2, 10] was 10/10, the Mortality percentual [3, 11] was 27% and the Total mortality [3, 11] was 8/30. For the same compound, the “Renal aggression (urine summary), in words” value ([3]; paracetamol intoxicated, erdosteine 350 mg/kg i.v. or NAC 114 mg/kg i.v.) was “antagonized”, the “Urine summary: Bil.” value [3, 12] was 1 mg/dL and the “Urine summary: Chet” value [3, 12] was “neg”. For the same compound, the “Urine summary: Density” value [3, 12] was 1020, the “Urine summary: Erythrocyte” value [3, 12] was 25 µL⁻¹ and the “Urine summary: Glucose” value [3, 12] was “neg”. For the same compound, the “Urine summary: Leuc” value [3, 12] was 10 µL⁻¹, the “Urine summary: Prot.” value [3, 12] was 50 mg/dL and the “Urine summary: UBG” value [3, 12] was 1 mg/dL. For the same compound, the “Urine summary: pH” value [3, 12] was 7, the ALT [3, 13] was 165.4^2,3 and the AST [3, 13] was 45.2^2. The HCT [3, 13] was 42.9^1, the PLT [3, 13] was 749.8^2,3 and the RBC [3, 13] was 7.45^1. For the same compound, the Urea [3, 13] was 55.2^2,3, the Uric acid [3, 13] was 1.934^2,3 and the Mortality % [4, 14] was 37%. The Total mortality [4, 14] was 11/30 and 11/30 ^1, the “Renal aggression (urine summary), in words” value ([4]; Pb intoxicated, TT or both) was “improvement compared with TT” and the “Pb in urine of survivors at the end of period, mean values” ([4]; Pb intoxicated, TT or both, once a day for 7 days) was 164.6 mg/L. For the same compound, the ALT [4, 15] was 159^2, the AST [4, 15] was 57.2^3 and the Hb [4, 15] was 16.98. For the same compound, the Hct [4, 15] was 42.9, the MCH [4, 15] was 23.46 and the PLT [4, 15] was 574. The RBC [4, 15] was 7.156, the Urea [4, 15] was 69.4^3 and the Uric acid [4, 15] was 2.632. The WBC [4, 15] was 6.16, the ALT [4, 16] was 159^2,3 and the AST [4, 16] was 57.2. The Hb [4, 16] was 16.98^3, the PLT [4, 16] was 574^3 and the RBC [4, 16] was 7.156^1,3. For the same compound, the Urea [4, 16] was 68.4, the WBC [4, 16] was 6.16^3 and the “Urine summary: Bil.” value [4, 17] was 3 mg/dL. The “Urine summary: Chet” value [4, 17] was 10 mg/dL, the “Urine summary: Density” value [4, 17] was 1020 and the “Urine summary: Erythrocyte” value [4, 17] was 100 µL⁻¹. The “Urine summary: Glucose” value [4, 17] was 50 mg/dL, the “Urine summary: Leuc” value [4, 17] was 28 µL⁻¹ and the “Urine summary: Prot.” value [4, 17] was 90 mg/dL. The “Urine summary: UBG” value [4, 17] was 1 mg/dL and the “Urine summary: pH” value [4, 17] was 6.5.
